Square brackets hold non-standard residues; d marks the D form. Ends that are not written are not given here. Dopa = N[C@@H](Cc1ccc(O)c(O)c1)C(=O)O; Hyp = O=C(O)[C@@H]1C[C@@H](O)CN1
What was measured:
person one = assay: Pain and bleeding after an operation, patient case; type: in vivo, human
Protocol: Immediately after the operation, they used 0.5 mg/mL of Compound B spray (as described in Example 38 but packed into a normal spray bottle) to apply directly on the wound. The right pane in FIG. 10 was taken 1 hour after operation. […] The physician said that it would normally take a patient at least ten days to fully recover from such a procedure with standard care.

db/db mice = assay: Diabetic wound model, VEGF and TGF-β1 content in wound tissues; type: in vivo; conditions: topical once daily; 1.65, 16.45, 164.5 μg/wound/day; vs model group
Protocol: (§1) 8 to 12 week old male db/db mice (C57BL/KsJ-db/db, with a body weight of 35-45 g/mouse) supplied by Changzhou Cvens Experimental Animal Co. Ltd. Prior to any experiments being conducted, mice were housed under standardized conditions at a constant temperature of 22±2° C., with alternating 12-hour periods of light and darkness, and were fed on a standard mouse diet with water, for about a week.
General anesthesia was induced using intraperitoneal 3% chloral hydrate (Sinopharm Chemical Reagent Co., Ltd.; 1 mL/10 g of body weight). The hair on the back was shaved by a baby hair shaver and depilated with cream. The skin area was wiped and sterilized with 75% alcohol twice.
An EMS skin biopsy punch with an 18 mm diameter was used to make a round wound on the back. The full thickness of skin was removed, and the depth of the wound reached the fascia. Wounds were left open without a suture.
The model group was given same amount of normal saline. There were 12 mice in each group apart from the control group, which had 8 mice. The skin pieces taken during wound creation were used as the samples at Day 7 for the control group.
Recombinant Human Epidermal Growth Factor (rhEGF) was purchased and prepared according to the instructions by the manufacturer. The lyophilized rhEGF powder (100000 IU/vial) was dissolved in 20 mL of normal saline to make a solution with a concentration of 5000 IU/mL. The working dose of rhEGF for this experiment was 1285 IU/wound.
Compound A and Compound B were dissolved in saline at concentrations indicated in Table 7 below (L=low dose, M=medium dose, H=high dose). 50 μL of each solution was applied to the wound surfaces every day.
Vascular endothelial growth factor (VEGF) and transforming growth factor-beta 1 (TGF-β1) play prominent roles in wound healing process. VEGF and TGF-β1 are often co-expressed in tissues in which angiogenesis occurs.

BALB/c mice = assay: Mouse ear swelling model (xylene); type: in vivo; conditions: for Swelling rate: about 0.1 g on right ear 1 h before xylene; for effect on edema caused by inflammation: hydrogels 0.5 and 1 mg/g
Protocol: 30 Health male BALB/c mice with 6-8 weeks old and average body weight of 18-25 g were supplied by Changzhou Cvens Experimental Animal Co., Ltd. and housed and cared for about 1 week prior to the experiment. […] The mice were randomly divided into 6 groups as described in Table 8, with 5 mice in each group. Compound A and Compound B were dissolved at concentrations indicated in Table 8 below (L=low dose, M=medium dose, H=high dose).
All excipients were obtained from Sinopharm Chemical Reagent Co. Ltd. The gels were made with water for injection.
Dexamethasone acetate cream (Dex cream; 5 mg/10 g (which means that there was 5 mg Dex contained in 10 g of the cream), Fuyuan Pharmaceutical Co., Ltd., Anhui, China) was used as positive control.
The left ear of each mouse was used as an autologous control. The right ear of each mouse was treated with the above compounds in the stated concentrations (Table 8).
About 0.1 g of the various gels, and Dex cream were applied to the right ear of mice in each group, both inside and outside. The blank gel base was applied on the ears in the model groups. After 1 hour, 20 μL of xylene (Shanghai Aladdin Bio-Chem Technology Co., Ltd.) was applied to the same ear of each mouse.
The mice were sacrificed by cervical dislocation 40 minutes after xylene application. The left and right ears were cut off. An EMS skin biopsy punch with a diameter of 8 mm was used to take a piece of the ear from the same site on both ears. The weights were recorded, and the swelling rate was calculated as a percentage according to the following formula:
(right ear weight−left ear weight)/left ear weight×100

C57BL/6 mice = assay: Acute wound model (full-thickness skin wound); type: in vivo; conditions: topical 50 μL/wound once daily Day 0 to Day 7; 1.65, 16.45, 164.5 μg/wound/day
Protocol: as §1, with “6-8 weeks” for “8 to 12 week”, “C57BL/6” for “db/db”, “were” for “(C57BL/KsJ-db/db, with a body weight of 35-45 g/mouse)”, “Ltd. (Changzhou, Jiangsu Province, China).” for “Ltd.”
General anesthesia was induced using intraperitoneal administration of 3% chloral hydrate (1 mL/10 g of body weight). The hair on the back was shaved by a baby hair shaver and depilated with cream. The skin area was wiped and sterilized with 75% alcohol twice.
A 12 mm EMS skin biopsy punch (Electron Microscopy Sciences, P.O. Box 550, 1560 Industry Road, Hatfield, PA 19440) was used to make two round wounds on the midline of the back. The two wounds were tangential and the skin between the circles was cut along the upper and lower tangents. Scissors were used to trim the wound. The full thickness of skin was removed to reach the fascia. The wound was oval shape and was left open without suture. […]
Photographs were taken of each wound every other day from Day 0. Photos were scanned into a computer, and wound areas calculated using ImageJ image analysis software (National Institute of Health).
The unhealed wound area was expressed as a percentage of the original wound area: […]

patient = assay: Radiation injury in the nasal cavity, patient case; type: in vivo, human
Protocol: A patient was diagnosed with paranasal sinus cancer and received radiation therapy. After two weeks treatment, they had inflammation of the nose and sinuses and felt like their nose was blocked or stuffy. The mucus in the nasal cavity and paranasal sinuses became thick and dry.
The patient used a nasal spray comprising Compound B (see Example 7 above) dissolved in water at a concentration of 0.5 mg/mL and then packed into a nasal spray bottle, once every two hours during daytime.

[1] = 0.5 mg/mL spray directly on the wound, 1 hour after operation

Substance | bleeding of operative wound (person one; [1]) | pain of operative wound (person one; [1]) | wound recovery (person one; 0.5 mg/mL spray, one week later (standard care: at least ten days)) | content of TGF-β1 in wound tissues (FIG. 3) (db/db mice) | content of VEGF in wound tissues (FIG. 2) (db/db mice) | Swelling rate (BALB/c mice; hydrogel 0.5 mg/g (L)) | Swelling rate (BALB/c mice; hydrogel 1 mg/g (H)) | effect on edema caused by inflammation (BALB/c mice) | unhealed wound rate / wound healing (FIG. 1) (C57BL/6 mice) | blocked or stuffy nose (patient; nasal spray 0.5 mg/mL once every two hours during daytime, three days later) | nasal discomfort during continued radiation therapy (patient; nasal spray 0.5 mg/mL, continuous use)
{[(Ala-Lys-Pro-Ser-Tyr-Hyp-Hyp-Thr-DOPA-Lys)2-Lys]2-Lys}2-Lys (AKPSY[Hyp][Hyp]T[Dopa]KKKK; also: branched lysine dendrimer {[(peptide)2-Lys]2-Lys}2-Lys) [Compound B] | bleeding had stopped | only slight pain was felt | the wound was fully recovered | stimulated the production | stimulated the production | 43% | 38% | significantly eliminate the edema caused by inflammation | significantly improve wound healing | nose became clear and was no longer stuffy | nasal discomfort did not worsen
{[(Dopa-Ala-Lys-Pro-Ser-Tyr-Hyp-Hyp-Thr-Tyr-Lys)2-Lys]2-Lys}2-Lys ([Dopa]AKPSY[Hyp][Hyp]TYKKKK; also: branched lysine dendrimer {[(peptide)2-Lys]2-Lys}2-Lys) [Compound A] |  |  |  | stimulated the production | stimulated the production | 63% | 43% | significantly eliminate the edema caused by inflammation | significantly improve wound healing |  | 
